The values below come from patent US20190038602A1, “GRANZYME B INHIBITOR FORMULATIONS AND METHODS FOR THE TREATMENT OF BURNS” (viDA Therapeutics, Inc., priority 2016, published 2019).

For one data set, the system named is burn wound. The data set is described as follows: Burn wound healing in mice (deep partial thickness thermal injury, degree IIb). The format is in vivo. On the procedure: In the studies described herein, all mice were initially anesthetized using mixture of isoflurane/oxygen (Iso about 2-2.5%/oxygen flow rate of about 1.5-2 L/min) in an induction chamber, then moved to a Baines system with a 1-2.5%/1.5-2 L/min flow rate. During anesthesia the mice were placed on a warming pad with a nose cone over the mice to maintain the anesthetic state. The toe nails were trimmed with clippers. A metal rod (25 g, 1 cm in diameter) was heated to 95-100° C. by submersion in boiling water for 3-5 min. The rod was immediately positioned vertically for 6 seconds without additional pressure on the dorsal skin of mice that had also been depilated 3 days before wounding. This procedure induces a deep partial thickness thermal injury (degree IIb). The severity of the thermal injury is classified according to Exp Dermatol. 2010; 19(9):777-783.

A short description of data set [1]: Compound A concentration at saturation in penetration enhancer vehicles (UPLC). The data set is classed as physicochemical. The protocol: Compound A was dissolved at saturation in various vehicles containing PE in pH 5 acetate buffer (see Table 2). An excess amount of Compound A and the corresponding vehicle were mixed by rotary mixer at room temperature for 24 hours and subsequent filtration through 0.22 μm cellulose acetate membrane. Concentration of Compound A was measured by UPLC.

Data set [2] is described as follows: Concentration of Compound A in skin after application of gel (FIG. 3B). The settings on record: 50 μL gel, 0.35% w/v Compound A. The protocol:
FIG. 3A is an image of skin to which a volume (50 μL) of a representative formulation of the invention that includes Compound A was applied. The applied formulation (gel) includes Compound A at a concentration of 0.35% w/v in a vehicle containing propylene glycol (20% w/w), Carbopol 940 (0.5% w/v), methyl paraben (0.2% w/w), propyl paraben (0.02% w/w) and acetate buffer pH 5 (QS). Triethylamine was used to adjust the final formulation pH to 5-6.
FIG. 3B compares concentration of Compound A (μg/μL) in the skin at 4, 6, and 24 hours after application of a volume (50 μL) of a representative formulation of the invention that includes Compound A as described above for FIG. 3A.
FIG. 3A is an image of skin to which a volume (50 μL) of a representative formulation of the invention that includes Compound A was applied. FIG. 3B compares concentration of Compound A (μg/μL) in the skin at 4, 6, and 24 hours after application of a volume (50 μL) of a representative formulation of the invention that includes Compound A as described above for FIG. 3A.

Data set [3] can be described thus: Ex vivo pig ear skin permeation, Franz Diffusion Cell System. The data set is classed as in vitro ADME. The conditions noted are these: for Compound A in tape-stripped skin samples, Average: n=3; for Skin concentration (Compound A in tape-stripped skin, single replicates): listed as Compound A. The protocol:
[…] Formulations were delivered to the skin over a period of 6 hours and drug permeation was assessed by UPLC-MS/MS analysis of tape-stripped skin and receptor fluid. Receptor fluid samples were collected for analysis at 3 and 6 hour time points.
Compound A permeation through skin was assessed ex vivo by using pig ear skin and a Franz Diffusion Cell System (PermeGear®).
Fresh pig ears were obtained from female Yorkshire/Landrace crosses, between 3.5-5 months old, at Jack Bell Research Centre, Vancouver. Immediately after surgery, pig ears were removed and placed in a double Ziploc® bag and stored at −20° C. freezer until shipment to laboratory site on ice via courier the next day. Upon arrival at the site, pig ears were stored in a segregated container, labeled with harvest and shipment date, in −20° C. freezer and were used prior to their expiry date of 5 weeks. Pig skin was prepared according to “Preparation of Pig Skin Samples for ex vivo Permeation Assays.” Briefly, one day prior to the study, frozen ears were thawed washed with deionized water and blotted dry. After trimming off hair, surface skin was separated from cartilage and fat, and hole-punched into coin shape samples to fit dimensions of Franz cells. Pig ear samples were stored in a petri dish, sealed with parafilm tape, in double Ziploc® bags at −20° C. overnight prior to the study on the following day.
Set up of the diffusion cell system was performed according to “Setup, Operation and Cleaning Procedure for Franz Diffusion Cell System.” Prior to application of formulations, skin integrity of each skin sample was determined by measuring the electrical resistance. The electrical resistance was measured with a Model 878B Dual Display LCR Meter (BK Precision®) connected to two stainless steel electrodes, using a setting of 1 KHz. Measurements were taken at least 30 minutes after mounting skin samples to ensure temperature and humidity equilibration. The donor and receptor chamber were filled with 300 μL and 5 mL of pH 7.4 phosphate buffered saline (PBS), respectively, and both electrodes were immersed in solution without touching the skin membrane. Any skin membrane giving an electrical resistance below 4.0 kΩ was discarded and replaced.
Throughout the permeation assay, all cells were maintained at 32° C. and sink condition was maintained in the receptor fluid. Receptor chambers were filled with 4.75 mL of receptor fluid (pH 7.4 PBS) and were kept stirring for the entire duration of the experiment. Skin samples were mounted above the receptor chamber, in direct contact with the receptor fluid, and then donor chambers were mounted above the skin. Any air bubbles between the skin tissue and the receptor fluid were carefully removed prior to application of formulations. The appropriate formulation (300 μL) was added to the donor chamber and the opening of the cell was covered with Parafilm® to prevent evaporation of the test article. Three skin samples per formulation (N) were tested. Three components (receptor fluid, applied formulation and skin samples) were sampled for subsequent analysis. Receptor fluid was sampled at 3 and 6 hours (without volume replacement) and stored at −20° C. until analysis. At the end of the experiment, the applied formulation was recovered from the donor chamber and recorded as the unabsorbed dose. The skin was then blotted dry with a Kimwipe® and tape-stripped skin (12 tape strips) was obtained. The first tape strip (3M scotch tape) was used to remove excess of formulation remaining on the skin and was discarded. Then a total of 11 tape strips were used to partially remove the stratum corneum. These tape strips were kept in labeled glass vial. Then using a hole-puncher the section of skin exposed to the formulation was removed and the corresponding weight of the skin sample was recorded. All samples were stored at −20° C. until analysis. […]

Several values for one entry are separate records, joined by “and”; a condition that tells them apart may be missing. Identical values can stand only once.

As for `CC[C@H](C)[C@H](NC(=O)CCC(=O)O)C(=O)NCC(=O)N1C(=O)N(C2CCCCC2)C[C@H]1C(=O)NCc1nn[nH]n1` [Compound 1A, 4-(((2S,3S)-1-((2-((S)-5-(((2H-tetrazol-5-yl)methyl)carbamoyl)-3-cyclohexyl-2-oxoimidazolidin-1-yl)-2-oxoethyl)amino)-3-methyl-1-oxopentan-2-yl)amino)-4-oxobutanoic acid], the “In vivo performance of gel” value with burn wound (3.6 mg/mL gel, pH 6.0 with triethanolamine, compared with Compound 1 gel (triethylamine)) is given as “performance comparable to that of another representative formulation”.

Consider `CC[C@H](C)[C@H](NC(=O)CCC(=O)O)C(=O)NCC(=O)N1C(=O)N(C2CCCCC2)C[C@H]1C(=O)NCc1nn[nH]n1` [Compound C2, 4-(((2S,3S)-1-((2-((S)-5-(((2H-tetrazol-5-yl)methyl)carbamoyl)-3-cyclohexyl-2-oxoimidazolidin-1-yl)-2-oxoethyl)amino)-3-methyl-1-oxopentan-2-yl)amino)-4-oxobutanoic acid], for which the “Compound A Concentration in Formulation” value in data set [1] (Water + 20% N-methyl-2-pyrollidone (NMP)) came out at 1.13 mg/mL; in data set [1] (pH5 acetate buffer + 10% Transcutol (TC)), 2.99 mg/mL; in data set [1] (pH5 acetate buffer + 10% dimethylisosorbide (DMI)) it was 3.18 mg/mL; in data set [1] (pH5 acetate buffer + 10% urea), 3.04 mg/mL; in data set [1] (pH5 acetate buffer + 15% TWEEN 80) it was 1.56 mg/mL; in data set [1] (pH5 acetate buffer + 20% propylene glycol (PG), room temperature 24 hours), 2.82 mg/mL. Moreover, the “Burn wound healing (percent of original wound size, falling of scabs)” value in the data set on burn wound (subcutaneous injection, solution in PBS 0.56 mg/ml, vs saline, Day 0 to Day 30) is “attenuation of initial burn expansion in the zone of stasis and improved burn wound healing”; in the data set on burn wound (topical gel vs saline control), “attenuation of initial burn expansion in the zone of stasis and improved burn wound healing”. For the same molecule, the “Quality of healed wound (epidermal thickness, decorin level, collagen level)” value in the data set on burn wound (topical gel) is “improves quality of healed wound”. In addition, the “Burn wound healing (percent of original wound size)” value in the data set on burn wound (topical gel vs vehicle control, repeated study, Day 0 to Day 24) was “attenuation of initial burn expansion in the zone of stasis and improved burn wound healing”. Besides, the “Stability and retention in skin (concentration at 4, 6 and 24 hours)” value in data set [2] is “stable and effectively retained in the skin”. Moreover, the “Compound A in tape-stripped skin samples, Average” value in data set [3] (Water + 20% N-methyl-2-pyrollidone (NMP), 6 hour exposure) turned out to be 4846 ng/g; in data set [3] (pH5 acetate buffer + 10% Dimethyl Isosorbide (DMI), 6 hour exposure), 8833 ng/g; in data set [3] (pH5 acetate buffer + 10% Transcutol (TC), 6 hour exposure) it was 5461 ng/g; in data set [3] (pH5 acetate buffer + 10% Urea, 6 hour exposure), 9317 ng/g; in data set [3] (pH5 acetate buffer + 15% Tween 80, 6 hour exposure), 3782 ng/g; in data set [3] (pH5 acetate buffer + 20% Propylene Glycol (PG), 6 hour exposure) it was 7104 ng/g. For the same molecule, the “Skin concentration (Compound A in tape-stripped skin, single replicates)” value in data set [3] (Water + 20% NMP, 6 h exposure) is 4313 ng/g and 4985 ng/g and 5241 ng/g; in data set [3] (pH5 acetate buffer + 10% DMI, 6 h exposure) it was 13975 ng/g and 6214 ng/g and 6311 ng/g; in data set [3] (pH5 acetate buffer + 10% TC, 6 h exposure) it was 5869 ng/g and 8886 ng/g and 1629 ng/g; in data set [3] (pH5 acetate buffer + 10% Urea, 6 h exposure), 5588 ng/g and 19422 ng/g and 2943 ng/g; in data set [3] (pH5 acetate buffer + 15% Tw80, 6 h exposure), 4937 ng/g and 1968 ng/g and 4442 ng/g; in data set [3] (pH5 acetate buffer + 20% PG, 6 h exposure), 4785 ng/g and 10012 ng/g and 6515 ng/g and 4784 ng/g. In data set [3] (tape-stripped skin, 6 hours, span over the six formulations), this molecule displayed an Average skin concentrations of 3700 to 9300 ng/g.
